Laboratory results: ChEMBL document CHEMBL1201862, “PubChem BioAssay data set” (2004)
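Grown in 96-well plates, cells were treated for 48 hours with each compound at five concentrations. Insufficient inhibition: endpoint recorded as highest concentration tested. GI50: concentration for 50% inhibition of growth.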 The source made the active and inactive calls. No stated cut-off is given here; in the data, active = GI50 up to about 1.1 µM and inactive = higher.

Key:
Assay in all cases: NCI-60 cell line screen, 48 h
NCI/ADR-RES = tested on: NCI/ADR-RES
K562 = tested on: K562
SF-295 = tested on: SF-295
SK-OV-3 = tested on: SK-OV-3
SF-268 = tested on: SF-268
SK-MEL-2 = tested on: SK-MEL-2
CCRF-CEM = tested on: CCRF-CEM
MCF7 = tested on: MCF7
HOP-62 = tested on: HOP-62
RPMI-8226 = tested on: RPMI-8226
Malme-3M = tested on: Malme-3M
UACC-257 = tested on: UACC-257
786-0 = tested on: 786-0
KM12 = tested on: KM12
PC-3 = tested on: PC-3
RXF 393 = tested on: RXF 393
SF-539 = tested on: SF-539
ACHN = tested on: ACHN
HT-29 = tested on: HT-29
SK-MEL-28 = tested on: SK-MEL-28
MDA-N = tested on: MDA-N
DU-145 = tested on: DU-145
SR = tested on: SR
SNB-75 = tested on: SNB-75
SN12C = tested on: SN12C
EKVX = tested on: EKVX
IGROV-1 = tested on: IGROV-1
HCT-15 = tested on: HCT-15
NCI-H522 = tested on: NCI-H522
M14 = tested on: M14
MDA-MB-231 = tested on: MDA-MB-231
HCC 2998 = tested on: HCC 2998
SW-620 = tested on: SW-620
UACC-62 = tested on: UACC-62
COLO 205 = tested on: COLO 205
HL-60 = tested on: HL-60
Hs-578T = tested on: Hs-578T
CAKI-1 = tested on: CAKI-1
MOLT-4 = tested on: MOLT-4
OVCAR-8 = tested on: OVCAR-8
HOP-92 = tested on: HOP-92
BT-549 = tested on: BT-549
LOX IMVI = tested on: LOX IMVI
A549 = tested on: A549
TK-10 = tested on: TK-10
T47D = tested on: T47D
HCT-116 = tested on: HCT-116
OVCAR-4 = tested on: OVCAR-4
SNB-19 = tested on: SNB-19
NCI-H460 = tested on: NCI-H460
U-251 = tested on: U-251
UO-31 = tested on: UO-31
NCI-H226 = tested on: NCI-H226
MDA-MB-435 = tested on: MDA-MB-435
OVCAR-5 = tested on: OVCAR-5
OVCAR-3 = tested on: OVCAR-3
NCI-H23 = tested on: NCI-H23
SK-MEL-5 = tested on: SK-MEL-5

Measured: GI50

N#C/C(=C\c1ccc(F)cc1)c1nc2ccccc2c(=O)[nH]1
> 100 µM: HCT-15
inactive: NCI/ADR-RES > 100 µM | K562 > 100 µM | SF-295 > 100 µM | SK-OV-3 > 100 µM | SF-268 58.6 µM | SK-MEL-2 > 100 µM | CCRF-CEM > 100 µM | MCF7 > 100 µM | HOP-62 47 µM | RPMI-8226 > 100 µM | Malme-3M > 100 µM | UACC-257 > 100 µM | 786-0 > 100 µM | KM12 3.91 µM | PC-3 > 100 µM | RXF 393 > 100 µM | SF-539 > 100 µM | ACHN > 100 µM | HT-29 > 100 µM | SK-MEL-28 > 100 µM | MDA-N > 100 µM | DU-145 > 100 µM | SR > 100 µM | SNB-75 25.9 µM | SN12C > 100 µM | EKVX > 100 µM | IGROV-1 > 100 µM | NCI-H522 > 100 µM | M14 > 100 µM | MDA-MB-231 48.3 µM | HCC 2998 > 100 µM | SW-620 > 100 µM | UACC-62 > 100 µM | COLO 205 > 100 µM | HL-60 > 100 µM | Hs-578T 79.6 µM | CAKI-1 > 100 µM | MOLT-4 26.1 µM | OVCAR-8 > 100 µM | HOP-92 82.2 µM | BT-549 36.8 µM | LOX IMVI > 100 µM | A549 > 100 µM | TK-10 > 100 µM | T47D > 100 µM | HCT-116 > 100 µM | OVCAR-4 > 100 µM | SNB-19 > 100 µM | NCI-H460 > 100 µM | U-251 70.6 µM | UO-31 > 100 µM | NCI-H226 > 100 µM | MDA-MB-435 > 100 µM | OVCAR-5 > 100 µM

Nc1nc(O)nc2snnc12
inactive: NCI/ADR-RES 32.6 µM | K562 7.26 µM | SF-295 33.2 µM | SK-OV-3 50.2 µM | SF-268 5.04 µM | SK-MEL-2 1.75 µM | CCRF-CEM 14.9 µM | OVCAR-3 > 100 µM | MCF7 > 100 µM | HOP-62 8.07 µM | RPMI-8226 5.7 µM | Malme-3M 8.65 µM | UACC-257 24.7 µM | 786-0 6.38 µM | KM12 > 100 µM | PC-3 > 100 µM | RXF 393 4.66 µM | SF-539 15.9 µM | ACHN > 100 µM | HT-29 > 100 µM | SK-MEL-28 6.27 µM | MDA-N 8.28 µM | DU-145 16.9 µM | SR 9.46 µM | SNB-75 5.28 µM | SN12C > 27.4 µM | EKVX > 100 µM | IGROV-1 > 100 µM | NCI-H522 > 100 µM | M14 7.35 µM | MDA-MB-231 7.13 µM | HCC 2998 > 65.6 µM | SW-620 5.4 µM | UACC-62 7.26 µM | COLO 205 > 100 µM | HL-60 2.79 µM | NCI-H23 > 100 µM | Hs-578T > 54.8 µM | CAKI-1 1.77 µM | MOLT-4 7.6 µM | OVCAR-8 5.71 µM | HOP-92 20.3 µM | BT-549 3.54 µM | SK-MEL-5 > 74.3 µM | LOX IMVI 2.92 µM | A549 > 100 µM | TK-10 > 22.4 µM | T47D 4.57 µM | HCT-116 7.89 µM | OVCAR-4 > 53.7 µM | SNB-19 > 87.9 µM | NCI-H460 > 100 µM | U-251 25.1 µM | UO-31 3.99 µM | NCI-H226 > 36.1 µM | MDA-MB-435 4.59 µM | OVCAR-5 > 100 µM
> 89.7 µM: HCT-15

Oc1ccc2c3c1OC1c4[nH]ncc4C[C@H]4[C@@H](C2)N(CC2CC2)CC[C@]314 (some centres undefined)
> 100 µM: HCT-15
inactive: NCI/ADR-RES > 100 µM | K562 99.5 µM | SF-295 > 100 µM | SK-OV-3 > 100 µM | SF-268 > 100 µM | SK-MEL-2 > 100 µM | CCRF-CEM > 100 µM | OVCAR-3 > 100 µM | MCF7 > 100 µM | HOP-62 > 100 µM | RPMI-8226 > 100 µM | Malme-3M > 100 µM | UACC-257 > 100 µM | 786-0 > 100 µM | KM12 > 100 µM | PC-3 > 100 µM | RXF 393 > 100 µM | ACHN > 100 µM | HT-29 > 100 µM | SK-MEL-28 > 100 µM | MDA-N > 100 µM | DU-145 > 100 µM | SR > 100 µM | SNB-75 78.5 µM | SN12C > 100 µM | EKVX > 100 µM | IGROV-1 > 100 µM | NCI-H522 > 100 µM | M14 > 100 µM | MDA-MB-231 > 100 µM | HCC 2998 > 100 µM | UACC-62 > 100 µM | COLO 205 > 100 µM | HL-60 > 100 µM | NCI-H23 > 100 µM | Hs-578T > 100 µM | CAKI-1 > 100 µM | MOLT-4 > 100 µM | OVCAR-8 > 100 µM | HOP-92 > 100 µM | BT-549 > 100 µM | SK-MEL-5 > 100 µM | LOX IMVI > 100 µM | A549 > 100 µM | TK-10 > 100 µM | T47D > 100 µM | HCT-116 > 100 µM | OVCAR-4 > 100 µM | SNB-19 > 100 µM | NCI-H460 > 100 µM | U-251 > 100 µM | UO-31 > 100 µM | NCI-H226 > 100 µM | MDA-MB-435 > 100 µM | OVCAR-5 > 100 µM
